pIC50: −log10 of the molar value.
Columns and labels:
RORγ = molecular target: T1, RORγ (Homo sapiens, UniProt P51449); experiment: RORγ overexpression dependent IL17a production in human CD4 T cells (RORγt-IRES-GFP transduced); assay type: cell-based; details: human peripheral blood naive CD4+ T cells, transduced day 1, analyzed day 6
T1 construct: expressed in transfected cells; host or cells: human peripheral blood naive CD4+ T cells, virally transduced
T1 sequence (P51449 1-497 isoform P51449-2): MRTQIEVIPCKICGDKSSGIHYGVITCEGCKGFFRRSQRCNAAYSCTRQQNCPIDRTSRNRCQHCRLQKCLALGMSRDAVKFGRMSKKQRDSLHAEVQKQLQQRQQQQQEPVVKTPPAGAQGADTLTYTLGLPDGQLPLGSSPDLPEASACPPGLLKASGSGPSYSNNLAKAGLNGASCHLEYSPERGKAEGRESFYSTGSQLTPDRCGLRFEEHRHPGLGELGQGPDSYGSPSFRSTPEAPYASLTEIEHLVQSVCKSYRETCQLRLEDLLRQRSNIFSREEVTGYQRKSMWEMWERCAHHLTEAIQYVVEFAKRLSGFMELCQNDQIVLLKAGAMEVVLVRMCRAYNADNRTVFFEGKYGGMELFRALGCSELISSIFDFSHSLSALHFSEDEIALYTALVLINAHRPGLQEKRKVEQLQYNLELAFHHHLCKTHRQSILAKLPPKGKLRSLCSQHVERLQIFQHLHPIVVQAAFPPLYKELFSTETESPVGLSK
Experimental: ROR dependent Th17 cell differentiation.
GFP expressing cells were gated for analysis. DMSO or compounds were added 6-8 hours after viral transduction.

RORγ/γt [1] = molecular target: T2, RORγ/γt (Mus musculus, UniProt P51450, T352K); experiment: RORγ/γt-luc reporter S2 cell assay / HTS (firefly luciferase); details: for Curve Class: RORγ/γt HTS concentration response curve class
[2] = test system: mouse Th17 cell differentiation; experiment: Cytokine induced mouse Th17 cell differentiation (IL17a production, FACS); assay type: cell-based; details: for percentage of mouse Th17 cells (IL17a production): at 10 uM (Table 4, printed in 20 μM column)
Experimental: Cytokine induced mouse Th17 cells differentiation. Effects on mouse endogenous RORγt in a relevant physiological setting were determined by testing compounds in the Th17 cell differentiation assay. […] Th1 or regulatory T cell differentiation was used as a counter-screen method to select specific compounds that only affect Th17 cell differentiation without having pleiotrophic effects on general T cell proliferation or cytokine production.
Naive CD4 T cells were cultured with CD3/CD28 stimulatory antibodies in presence of TGFβ and IL6. Compounds were added on Day 1 and cells were analyzed on Day 4. Numbers shown in Table 3 indicate the percentage of mouse Th17 cells.
CD25^−, CD62L^+, and CD44^int-high cells were sorted from B6 mice.

[3] = test system: VP16-luc, RORα-luc, and DHR3-luc reporter S2 cell lines; experiment: S2 cell reporter specificity test on other closely related reporters; assay type: cell-based; details: S2 cell assay
RORγ/γt [4] = molecular target: T2, RORγ/γt; experiment: Small-scale screening, G4BD-RORγt stable S2 cells with transient transfection of two luciferase constructs; assay type: cell-based; set-up: expressed in transfected cells
Experimental: Promega Dual-Glo system is widely used for HTS as the luciferase substrates. Cell culture medium was reduced to the final volume of 10 μl or less and 10 μl of Dual-glo and 10 μl of Stop-glo luciferase substrates were added in a sequencial manner (Promega). Firefly and Renilla luciferase activity was determined by measuring luminescence signals using an automated 384-well plate reader equipped with multiple stack units (such as the Analyst GT or Envision plate readers).

[5] = test system: human naive cord blood T cells; experiment: Human Th17 cell differentiation, naive cord blood T cells (IL-17a and IFN-γ, flow cytometry); assay type: cell-based; details: six days, IL2, IL23, ILβ, TGFβ
Description: Human Th17 cell differentiation. Compound effects on human RORγt will be tested by treating human cord blood CD4 T cells with select compounds to determine if such compounds alter differentiation into Th17 lineages.

T2 sequence (P51450 with tags, fused parts or gaps T352K): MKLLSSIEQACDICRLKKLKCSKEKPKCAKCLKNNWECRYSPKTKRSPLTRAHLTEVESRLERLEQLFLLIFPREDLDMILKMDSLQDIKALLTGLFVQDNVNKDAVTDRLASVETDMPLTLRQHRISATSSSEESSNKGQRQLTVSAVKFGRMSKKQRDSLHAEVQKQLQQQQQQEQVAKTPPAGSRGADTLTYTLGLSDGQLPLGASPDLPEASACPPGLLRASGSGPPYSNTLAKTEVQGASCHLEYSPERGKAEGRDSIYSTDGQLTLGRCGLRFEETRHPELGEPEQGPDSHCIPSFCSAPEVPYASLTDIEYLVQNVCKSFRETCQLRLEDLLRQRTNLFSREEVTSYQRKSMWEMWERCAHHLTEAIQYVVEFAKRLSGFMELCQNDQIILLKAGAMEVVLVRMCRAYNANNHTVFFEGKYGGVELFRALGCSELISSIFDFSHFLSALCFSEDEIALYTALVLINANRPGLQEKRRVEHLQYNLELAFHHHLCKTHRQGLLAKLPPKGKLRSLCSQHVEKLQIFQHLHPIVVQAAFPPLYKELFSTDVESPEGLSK

Compound | RORγ overexpression dependent IL17a production (in words) (RORγ) | AC50 (RORγ/γt [1]) [µM] | Curve Class (RORγ/γt [1]) | percentage of mouse Th17 cells (IL17a production) [2] | also measured
CCOC(=O)[C@@H]1[C@H]2COc3ccc(Br)cc3[C@@H]2N2C(=O)N(c3ccccc3)C(=O)[C@@]12C [MLS001066232-01] | inhibit | 10 | −2.1 | 10.4 (at 10 uM) % | RORγ/γt reporter activity (in words) (RORγ/γt [1]; S2 cell reporter): inhibition of RORγ reporter; activity of other closely related reporters (in words) [3]: without affecting the activity
CCOC(=O)[C@@H]1[C@H]2COc3cc(OC)ccc3[C@@H]2N2C(=O)N(c3ccc(C)cc3)C(=O)[C@@]12C [MLS001066267-01] | inhibit | 5.01 | −2.1 | 13.5 (at 10 uM) % | pIC50 (RORγ/γt [1]): 5.30; 80% Inhib. @ (RORγ/γt [1]; RORγ/γt reporter, S2 cells, concentration for 80% inhibition): 10 µM
C[C@H]1O[C@@H](O[C@H]2[C@@H](O)C[C@H](O[C@H]3[C@@H](O)C[C@H](O[C@H]4CC[C@@]5(C)[C@H](CC[C@@H]6[C@@H]5CC[C@]5(C)[C@@H](C7=CC(=O)OC7)CC[C@]65O)C4)O[C@@H]3C)O[C@@H]2C)C[C@H](O)[C@@H]1O [digitoxin] | – | – | – | – | RORγ/γt antagonist identification (in words) (RORγ/γt [4]): specific RORγ/γt antagonists
C[C@H]1[C@H](C)CC[C@]2(C(=O)O)CC[C@]3(C)C(=CC[C@@H]4[C@@]5(C)CC[C@H](O)C(C)(C)[C@@H]5CC[C@]43C)[C@H]12 [ursolic acid] | – | – | – | – | effect on human CD4 T cell cytokine production (in words) [5]: RORγt specific inhibitory effects; effect on mouse Th17 cell differentiation / IL-17a in mouse CD4 T cells (in words) ([2]; IL-6 and TGF-β): RORγt specific inhibitory effects
